From patent US8367620B2, “Peptidic growth hormone secretagogues analog compounds and preparations thereof” (Centro de Ingenieria Genetica y Biotecnologia, priority 2006, dated 2013)

Each sequence was assayed on Post-larvae of Litopenaeus vanamei (assay: Growth stimulation in shrimps by dietary supplementation). Conditions: compound at 1% in post-larvae crustacean diet.
Assay type: in vivo
Method: The peptidic GHS analogs were included at 1% in a post-larvae crustacean diet. Post-larvae of Litopenaeus vanamei were fed with the aforementioned diet in parallel with a control group with 1% BSA addition. The effect was measured with an optical micrometer and weighing the animals in a 0.1 mg precision scale.

| Sequence | Size Inc. (%), control group growing = 100% |
| --- | --- |
| GLEFKLLHQ [Compound A238, L-amino acid peptide with internal side-chain cycle, SEC; ID NO: 18] | 130.1% |
| GMEAGIKLCHRQ [Compound A235, L-amino acid peptide with internal side-chain cycle, SEC; ID NO: 15] | 137.0% |
| HAKPGGIDPEQ [Compound A229, L-amino acid peptide with internal side-chain cycle, SEC; ID NO: 9] | 140.0% |
| HCKFDLDWH [Compound A223, L-amino acid peptide with internal side-chain cycle, SEC; ID NO: 3] | 131.6% |
| HGSKFDLEFG [Compound A222, L-amino acid peptide with internal side-chain cycle, SEC; ID NO: 2] | 131.0% |
| HKGIDSPEQH [Compound A232] | 139.7% |

What follows are sequences tested on Litopenaeus vanamei post-larvae (assay: Growth of shrimp post-larvae fed Artemia-bioencapsulated compounds). Conditions: Artemia bioencapsulated (10 mh/L, one hour), fed four times a day for one month.
Assay type: in vivo
Method: The peptidic GHS analogs were bioencapsulated in Artemia to be fed to Litopenaeus vanamei post-larvae. For the encapsulation the compounds were added in a 10 mh/L left for an hour, harvested and washed. The animals were fed four times a day for one month while the control group was fed with BSA encapsulated Artemia The effect was measured with an optical micrometer and weighing the animals in a 0.1 mg precision scale.

| Sequence | Size Inc. (%), control group growing = 100% |
| --- | --- |
| GLEFKLLHQ [Compound A238, L-amino acid peptide with internal side-chain cycle, SEC; ID NO: 18] | 140.0% |
| GMEAGIKLCHRQ [Compound A235, L-amino acid peptide with internal side-chain cycle, SEC; ID NO: 15] | 134.2% |
| HAKPGGIDPEQ [Compound A229, L-amino acid peptide with internal side-chain cycle, SEC; ID NO: 9] | 140.0% |
| HCKFDLDWH [Compound A223, L-amino acid peptide with internal side-chain cycle, SEC; ID NO: 3] | 132.0% |
| HGSKFDLEFG [Compound A222, L-amino acid peptide with internal side-chain cycle, SEC; ID NO: 2] | 130.3% |
| HKGIDSPEQH [Compound A232] | 139.6% |

The sequences below were run on tilapias (assay: Growth acceleration on juvenile tilapias treated intraperitoneally). Conditions: juvenile tilapia, ip 0.1 μg/g twice a week, three weeks.
Assay type: in vivo
Method: The compounds were dissolved in a sodium phosphate (PBS) buffer solution and injected twice a week, during three weeks at 0.1 μg/g of humid fish weight (gbw). Compounds were applied individually to a group of 10 male tilapias with an average weight of 60.41±10.36 g and a control group with an average weight of 60.58±19.67 g was receiving PBS only as a control, measuring the average weight every week, all animals in the experiment were labelled with microchips (Stoelting Co. Wood Dale, USA.). for proper identification.

| Sequence | Weight Inc. (%), control group growing = 100% |
| --- | --- |
| GLEFKLLHQ [Compound A238, L-amino acid peptide with internal side-chain cycle, SEC; ID NO: 18] | 129.4% |
| GMEAGIKLCHRQ [Compound A235, L-amino acid peptide with internal side-chain cycle, SEC; ID NO: 15] | 89.9% |
| HAKPGGIDPEQ [Compound A229, L-amino acid peptide with internal side-chain cycle, SEC; ID NO: 9] | 126.5% |
| HCKFDLDWH [Compound A223, L-amino acid peptide with internal side-chain cycle, SEC; ID NO: 3] | 105.0% |
| HGSKFDLEFG [Compound A222, L-amino acid peptide with internal side-chain cycle, SEC; ID NO: 2] | 96.2% |
| HKGIDSPEQH [Compound A232] | 160.1% |

These sequences were tested on lysozyme (assay: Lysozyme levels in tilapia larvae treated by immersion). Conditions: immersion 100 μg/L.
Assay type: in vivo, Oreochromis sp.
Method: (§1) Growth stimulation experiments on tilapia Oreochromis sp. larvae were performed evaluating groups of 100 larvae with 0.01 g average, using the peptidic GHS analogs, in a 100 μg/L concentration, twice a week using an immersion time of one hour.
During this experiment lysozyme levels were also monitored and an increase of this immunity marker was obtained in the treated animals as shown in table 8.

| Sequence | Lysozyme levels of the treated animals relative to the control group |
| --- | --- |
| GLEFKLLHQ [Compound A238, L-amino acid peptide with internal side-chain cycle, SEC; ID NO: 18] | 1.33 |
| GMEAGIKLCHRQ [Compound A235, L-amino acid peptide with internal side-chain cycle, SEC; ID NO: 15] | 1.90 |
| HAKPGGIDPEQ [Compound A229, L-amino acid peptide with internal side-chain cycle, SEC; ID NO: 9] | 1.15 |
| HCKFDLDWH [Compound A223, L-amino acid peptide with internal side-chain cycle, SEC; ID NO: 3] | 1.52 |
| HGSKFDLEFG [Compound A222, L-amino acid peptide with internal side-chain cycle, SEC; ID NO: 2] | 1.43 |
| HKGIDSPEQH [Compound A232] | 2.41 |

What follows are sequences tested on tilapia Oreochromis sp. larvae (assay: Growth stimulation of tilapia larvae by immersion). Conditions: immersion 100 μg/L, one hour twice a week, three weeks.
Assay type: in vivo
Method: as §1

| Sequence | Weight Inc. (%), control group growing = 100% |
| --- | --- |
| GLEFKLLHQ [Compound A238, L-amino acid peptide with internal side-chain cycle, SEC; ID NO: 18] | 112.6% |
| GMEAGIKLCHRQ [Compound A235, L-amino acid peptide with internal side-chain cycle, SEC; ID NO: 15] | 90.0% |
| HAKPGGIDPEQ [Compound A229, L-amino acid peptide with internal side-chain cycle, SEC; ID NO: 9] | 125.0% |
| HCKFDLDWH [Compound A223, L-amino acid peptide with internal side-chain cycle, SEC; ID NO: 3] | 102.0% |
| HGSKFDLEFG [Compound A222, L-amino acid peptide with internal side-chain cycle, SEC; ID NO: 2] | 96.0% |
| HKGIDSPEQH [Compound A232] | 148.3% |

Each sequence was assayed on IGF-I mRNA (assay: IGF-I mRNA in liver and GH level of intraperitoneally injected tilapias). Conditions: liver of intraperitoneally injected tilapias.
Assay type: in vivo, tilapia
Method: IGF-I mRNa was determined in the liver of intraperitoneally injected tilapias monitoring also the GH level time course, showing the peptidic GHS analog compounds as able to stimulate in fish the GH levels in the bloodstream and at incrementing the IGF-I mRNA levels after the injection of the compounds as shown in table 4.

| Sequence | Normalized IGF-I mRNA levels to a non related synthetic peptide control group |
| --- | --- |
| GLEFKLLHQ [Compound A238, L-amino acid peptide with internal side-chain cycle, SEC; ID NO: 18] | 1.24 |
| GMEAGIKLCHRQ [Compound A235, L-amino acid peptide with internal side-chain cycle, SEC; ID NO: 15] | 0.9 |
| HAKPGGIDPEQ [Compound A229, L-amino acid peptide with internal side-chain cycle, SEC; ID NO: 9] | 1.09 |
| HCKFDLDWH [Compound A223, L-amino acid peptide with internal side-chain cycle, SEC; ID NO: 3] | 1.40 |
| HGSKFDLEFG [Compound A222, L-amino acid peptide with internal side-chain cycle, SEC; ID NO: 2] | 1.115 |
| HKGIDSPEQH [Compound A232] | 1.23 |

Each sequence was assayed on PC12 cells (assay: not given). Conditions: differentiated PC12 cells, 72 h incubation, MTT; read-out: IC50 during the NGF deprivation induced neuronal death.
Assay type: cell-based
Method: PC12 cells were stored in 75 cm^2 culture flasks on DMEM containing 5% bovine foetal serum and 10% horse serum, with 50 μg/ml gentamicin. Cells were incubated at 37° C. in 5% CO2. To induce differentiation cells were transferred at a density of 1×10^4 to polylysine covered 96 well plates in NGF supplemented DMEM media for 7 days, with medium replacement every 2-3 days. After differentiation cells were incubated with peptidic GHS analog compounds, at different concentrations for 72 h. Cell survival and proliferation was determined using the Promega non-radioactive cytotoxicity proliferation assay, Cell Titer 96, based in the conversion of 3-(4,5-dimethylthiazole-2-yl)-2,5-diphenyltetrazolium bromide (MTT) in to a spectrophotometrically detectable product. After deprivation of NGF medium is removed and 15 μl of the DMEM dissolved dye is added, after 4 hours of 37° C. incubation 100 μl of the stopping solution is added and absorbance is measured at 570 nm

| Sequence | IC50 |
| --- | --- |
| GLEFKLLHQ [Compound A238, L-amino acid peptide with internal side-chain cycle, SEC; ID NO: 18] | 2040 nM |
| GMEAGIKLCHRQ [Compound A235, L-amino acid peptide with internal side-chain cycle, SEC; ID NO: 15] | 2050 nM |
| HAKPGGIDPEQ [Compound A229, L-amino acid peptide with internal side-chain cycle, SEC; ID NO: 9] | 3410 nM |
| HCKFDLDWH [Compound A223, L-amino acid peptide with internal side-chain cycle, SEC; ID NO: 3] | 3120 nM |
| HGSKFDLEFG [Compound A222, L-amino acid peptide with internal side-chain cycle, SEC; ID NO: 2] | 2030 nM |
| HKGIDSPEQH [Compound A232] | 4890 nM |

Each sequence was assayed on Litopenaeus vanamei (assay: Growing of shrimp larvae by dipping in solution of the compounds). Conditions: four dips of one hour every three days, 0.1 g/L.
Assay type: in vivo
Method: Shrimp larvae were subjected two four dips, for one hour every three days with different peptidic GHS analogs at 0.1 g/L. The control group was subjected to the same frequency of dipping with 1 mg/L BSA.

| Sequence | Size Inc. (%), control group growing = 100% | Weight Inc. (%), control group growing = 100% |
| --- | --- | --- |
| GLEFKLLHQ [Compound A238, L-amino acid peptide with internal side-chain cycle, SEC; ID NO: 18] | 117.9% | 129.2% |
| GMEAGIKLCHRQ [Compound A235, L-amino acid peptide with internal side-chain cycle, SEC; ID NO: 15] | 112.5% | 121.0% |
| HAKPGGIDPEQ [Compound A229, L-amino acid peptide with internal side-chain cycle, SEC; ID NO: 9] | 115.9% | 126.1% |
| HCKFDLDWH [Compound A223, L-amino acid peptide with internal side-chain cycle, SEC; ID NO: 3] | 110.9% | 120.0% |
| HGSKFDLEFG [Compound A222, L-amino acid peptide with internal side-chain cycle, SEC; ID NO: 2] | 112.2% | 121.0% |
| HKGIDSPEQH [Compound A232] | 123.0% | 132.8% |

The sequences below were run on primary cultures of granular cerebellum cells (assay: not given). Conditions: 500 μM hydrogen peroxide, rat cerebellum granular cells; read-out: IC50 during the induced neuronal damage by Hydrogen Peroxide addition to a primary culture of neurons.
Assay type: cell-based, Wistar rats
Method: Primary cultures of granular cerebellum cells were obtained from 7-9 days Wistar rats. After a rapid dissection, rat cerebellums were submerged in a cold solution and meningeal membranes were removed, each organ was transferred to a 2-3 ml fresh medium solution and finely sliced. Cells were dissociated using a Pasteur pipette and filtered through a nylon […] membrane (Falcon, Franklin Lakes, N.J.). The number of viable cells was determined by cell counting in a hematocytometer with tripan blue as a marker. Cells were cultured on polylysine covered 96 well plates at a density of 6250 cells in […] final volume. Cultures were kept at 37° C. in 5%. CO2 after 24 h, 10 μM of cytosine arabinofuranose (AraC; Sigma) was added to inhibit the proliferation of non-neuronal cells. The capacity of neural damage prevention was tested adding 500 μM hydrogen peroxide in different concentrations of peptidic GHS analog compounds, Cell survival was determined using the Promega non-radioactive cytotoxicity proliferation assay, Cell Titer 96 (Promega).

| Sequence | IC50 |
| --- | --- |
| GLEFKLLHQ [Compound A238, L-amino acid peptide with internal side-chain cycle, SEC; ID NO: 18] | 1000 nM |
| GMEAGIKLCHRQ [Compound A235, L-amino acid peptide with internal side-chain cycle, SEC; ID NO: 15] | 1010 nM |
| HAKPGGIDPEQ [Compound A229, L-amino acid peptide with internal side-chain cycle, SEC; ID NO: 9] | 1330 nM |
| HCKFDLDWH [Compound A223, L-amino acid peptide with internal side-chain cycle, SEC; ID NO: 3] | 2470 nM |
| HGSKFDLEFG [Compound A222, L-amino acid peptide with internal side-chain cycle, SEC; ID NO: 2] | 1300 nM |
| HKGIDSPEQH [Compound A232] | 3280 nM |
